{
  "source": "patent US6043246A",
  "about": "“Urea derivatives” (Banyu Pharmaceutical Co., Ltd., priority 1996, dated 2000)",
  "target": "T1, human NPY Y5 receptor (Homo sapiens, UniProt Q15761)",
  "T1 construct": "expressed in transfected cells; host or cells: COS-7, CHO and LM(tk-) cells (ATCC); vectors pcDNA3, pRc/RSV, pCI-neo; membrane preparations",
  "T1 sequence (Q15761 1-445)": "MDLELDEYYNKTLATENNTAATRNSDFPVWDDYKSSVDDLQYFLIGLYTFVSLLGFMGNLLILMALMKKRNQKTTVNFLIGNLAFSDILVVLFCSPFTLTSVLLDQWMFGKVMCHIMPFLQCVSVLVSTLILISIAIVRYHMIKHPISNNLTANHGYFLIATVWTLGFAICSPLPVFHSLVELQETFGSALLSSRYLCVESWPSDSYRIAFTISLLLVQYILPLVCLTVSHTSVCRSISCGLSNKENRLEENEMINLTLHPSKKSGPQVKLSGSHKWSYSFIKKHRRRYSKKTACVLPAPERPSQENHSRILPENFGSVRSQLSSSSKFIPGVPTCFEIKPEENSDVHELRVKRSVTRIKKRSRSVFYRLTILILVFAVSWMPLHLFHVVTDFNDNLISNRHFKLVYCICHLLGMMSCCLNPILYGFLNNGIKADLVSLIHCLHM",
  "test": "Test of Inhibition of NPY Binding ([125I] peptide YY binding to membrane preparations)",
  "conditions": "membranes of cells expressing NPY Y5 receptor, 25° C., 2 hours, read-out: concentration needed to inhibit 50% of the specific binding of peptide YY (IC50 value)",
  "text": "cDNA Sequence encoding a human NPY Y5 receptor [International Publication WO 96/16542] was cloned into expression vectors pcDNA3, pRc/RSV (manufactured by Invitrogen) and pCI-neo (manufactured by Promega). Using the cationic lipid method [see Proceedings of the National Academy of Science of the United States of America, vol.84, p.7413 (1987)], host cells COS-7, CHO and LM(tk-) (American Type Culture Collection) were transfected with the thus prepared expression vectors to obtain cells in which the NPY Y5 receptor had been expressed.\nEach of the membrane preparations thus prepared from the cells in which the NPY Y5 receptor had been expressed was incubated together with each compound to be tested and 20,000 cpm of [^125 I] peptide YY (manufactured by Amersham) at 25° C. for 2 hours in an assay buffer solution (25 mM HEPES buffer, pH 7.4, containing 10 mM magnesium chloride, 1 mM phenylmethylsulfonyl fluoride and 0.1% bacitracin) and then, the reaction mixture was filtered through a glass filter GF/C. After washing with 50 mM Tris buffer, pH 7.4, containing 0.3% BSA, radioactivity on the glass filter was measured using a gamma counter. […] As the result, IC50 value of the compound of Example 17 was calculated to be […].",
  "note": "pIC50: −log10 of the molar value.",
  "data": [
    {"smiles": "COc1ccc(-c2cc(NC(=O)N3CCN(c4cccc(Cl)c4)CC3)[nH]n2)cc1", "note": "[Example 17, 3-[4-(3-chlorophenyl)piperazinyl]carbonylamino-5-(4-methoxyphenyl)pyrazole]", "values": [
      {"measurement": "pIC50", "result": 7.57}
    ]}
  ]
}
